Results as given in the supplement of paper PMC10307832.

Assays:
Test in all cases: relative viability (nuclei count vs DMSO), 5 days (fraction); higher = more cells survive
[1] = compound: CC1=CC(=CC=C1)NC2=NC(=CS2)C3=CC=NC=C3 + COc1cccc2cc(-c3nc([C@H]4CC[C@H](C(=O)O)CC4)n4ncnc(N)c34)[nH]c12 [OSI-027] (partner 0.5 µM)
Summary of the method: (§1)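 Dosing by pin tool came one day after lung cancer cell lines were seeded in 1536-well plates, using either one drug or a fixed anchor-drug dose plus five library-drug doses (not always all listed) in √10 steps. After 5 days, nuclei were counted on 4× images. Relative viability is treated-well nuclei count divided by vehicle-well nuclei count, and values are medians of duplicate plates.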

Masitinib + Pictilisib = compound: Cc1ccc(NC(=O)c2ccc(CN3CCN(C)CC3)cc2)cc1Nc1nc(-c2cccnc2)cs1 [Masitinib] + CS(=O)(=O)N1CCN(Cc2cc3nc(-c4cccc5[nH]ncc45)nc(N4CCOCC4)c3s2)CC1 [Pictilisib] (partner 1 µM)
Summary of the method: as §1

Masitinib + Navitoclax = compound: Cc1ccc(NC(=O)c2ccc(CN3CCN(C)CC3)cc2)cc1Nc1nc(-c2cccnc2)cs1 [Masitinib] + CC1(C)CCC(c2ccc(Cl)cc2)=C(CN2CCN(c3ccc(C(=O)NS(=O)(=O)c4ccc(N[C@H](CCN5CCOCC5)CSc5ccccc5)c(S(=O)(=O)C(F)(F)F)c4)cc3)CC2)C1 [Navitoclax] (partner 0.5 µM)
Summary of the method: as §1

Masitinib + OSI-027 = compound: Cc1ccc(NC(=O)c2ccc(CN3CCN(C)CC3)cc2)cc1Nc1nc(-c2cccnc2)cs1 [Masitinib] + COc1cccc2cc(-c3nc([C@H]4CC[C@H](C(=O)O)CC4)n4ncnc(N)c34)[nH]c12 [OSI-027] (partner 0.5 µM)
Summary of the method: as §1

Q: Which results are given for UMC-11?
A: relative viability ([1]; first compound 0.08 µM): 0.448; relative viability ([1]; first compound 0.253 µM): 0.512; relative viability ([1]; first compound 0.8 µM): 0.469; relative viability ([1]; first compound 2.53 µM): 0.461; relative viability ([1]; first compound 8 µM): 0.443; relative viability (Masitinib + Pictilisib; first compound 0.01 µM): 0.744; relative viability (Masitinib + Pictilisib; first compound 0.03162 µM): 0.862; relative viability (Masitinib + Pictilisib; first compound 0.1 µM): 0.948; relative viability (Masitinib + Pictilisib; first compound 0.3162 µM): 0.972; relative viability (Masitinib + Pictilisib; first compound 1 µM): 0.856; relative viability (Masitinib + Navitoclax; first compound 0.01 µM): 0.286; relative viability (Masitinib + Navitoclax; first compound 0.03162 µM): 0.321; relative viability (Masitinib + Navitoclax; first compound 0.1 µM): 0.353; relative viability (Masitinib + Navitoclax; first compound 0.3162 µM): 0.338; relative viability (Masitinib + Navitoclax; first compound 1 µM): 0.353; relative viability (Masitinib + OSI-027; first compound 0.03162 µM): 0.46; relative viability (Masitinib + OSI-027; first compound 0.1 µM): 0.487; relative viability (Masitinib + OSI-027; first compound 0.3162 µM): 0.491; relative viability (Masitinib + OSI-027; first compound 1 µM): 0.46
